Laboratory results from patent publication US20220202905A1, “COMPOSITION FOR PREVENTING OR TREATING NEUROTROPHIC KERATITIS WHICH CONTAINS PACAP PEPTIDE OR STABILIZED PACAP PEPTIDE” (SENJU PHARMACEUTICAL CO., LTD., priority 2019, published 2022).
Square brackets hold non-standard residues; d marks the D form. Peptide text beside a SMILES is read from it. Ala(1H-tetrazol-5-yl) = N[C@@H](Cc1nnn[nH]1)C(=O)O

Experiments:
VPAC1R = target: T1, VPAC1R (Homo sapiens, UniProt P32241); assay: cAMP assay in VPAC1R high-expressing CHO-K1 cell line; format: cell-based; conditions: Table 12; cAMP inducing effect, CHO-K1 VPAC1R high-expressing cells
T1 construct: host or cells: CHO-K1
T1 sequence (P32241 31-457): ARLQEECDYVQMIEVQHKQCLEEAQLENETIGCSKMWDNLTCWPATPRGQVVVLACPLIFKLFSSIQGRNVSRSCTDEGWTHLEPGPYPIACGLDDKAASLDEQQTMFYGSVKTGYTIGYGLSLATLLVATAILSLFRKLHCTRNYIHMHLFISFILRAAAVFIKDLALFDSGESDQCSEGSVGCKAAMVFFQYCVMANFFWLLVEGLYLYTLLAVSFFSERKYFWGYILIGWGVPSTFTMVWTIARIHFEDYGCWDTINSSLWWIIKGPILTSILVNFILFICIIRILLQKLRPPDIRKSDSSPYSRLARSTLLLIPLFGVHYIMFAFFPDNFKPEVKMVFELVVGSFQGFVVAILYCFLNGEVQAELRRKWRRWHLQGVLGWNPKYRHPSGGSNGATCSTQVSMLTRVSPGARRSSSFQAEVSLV
Procedure: (§1) The cells were cultured for 18 to 24 hours at 37° C. in a 5% C02 incubator, adhering the cells to the plate. […] A 5-fold dilution series was then prepared with the same Cell assay buffer and used in an assay. The cAMP assay was carried out using a Hit Hunter cAMP Assay for Biologics kit (product of DiscoveRx, Cat. No. 90-0075LM25), according to the included kit instructions. […] Next, the culture medium was removed from the CHO-K1 cell culture plate, washing was performed with PBS, and the peptide-cAMP antibody liquid mixtures were added to the cells and incubated for 30 minutes under a 5% CO2 atmosphere at 37° C. A working detection solution was then added and the culture plate was shielded from light with aluminum foil and incubated at 25° C. for 1 hour. After incubation, Solution A was added and the culture plate was shielded from light with aluminum foil and then incubated at 25° C. for 3 hours. […] The obtained value for the Relative Luminescence Unit (RLU) was analyzed with GraphPad Prism Ver 6.05 (product of Graph Pad) and the EC50 value was calculated for each peptide. […] FIG. 2 and Table 11. […] A 5-fold dilution series was then prepared with the same Cell assay buffer and used in an assay. […] A 5-fold dilution series was then prepared with the same Cell assay buffer and used in an assay.

[1] = Peptide stability test, phosphate buffer (pH 7.0), 40° C. storage, HPLC remaining rate; format: physicochemical
Procedure: Peptides 1 and 3 to 5 synthesized in Example 2 were weighed and dissolved in phosphate buffer (pH 7.0) to prepare 1.0 mM peptide solutions. The 1.0 mM peptide solutions were then diluted with phosphate buffer to 100 μM. After filtering with Chromatdisk (product of Merck Millipore, Millex-GV, 0.22 μm), each filtrate was dispensed into an LC vial (Waters Deactivated […] prepared peptide solutions were incubated for one month or 2 months in a 40° C. thermostatic bath to obtain stored samples. A simultaneously prepared sample among the peptide solutions that was not stored was used as a standard sample (initial sample). The standard sample and the stored samples were stored at -30° C. until sample analysis. Using the total weight of the aqueous peptide solution and storage vessel as the specimen weight, measurements were recorded as the specimen weights before storage and the specimen weights after storage under different storage conditions. The empty weight of the storage vessel was also measured, and the moisture permeability was determined by the following formula. After stirring the standard sample and the stored samples with a vortex mixer, each peptide solution was transferred to an HPLC vial (Deactivated Qsert vial by Waters Co.). Reverse-phase HPLC (HPLC system: Prominence by Shimadzu Corp.) was conducted under the conditions shown in Table 3 below for analysis of the peptide solutions, and chromatograms were obtained. Guard column: XSelect CSH C18 by Waters Co., 5 μm, 4.6×20 mm Guard Cartridge Detection wavelength: 220 nm Mobile phase A: 0.1% formic acid aqueous solution Mobile phase B: 0.1% acetonitrile formate solution Measuring time: 30 minutes Measuring sample injection rate: 50 μL Flow rate: 1.0 mL/min Sample cooler: 4° C. Column temperature: 40° C. Mobile phase delivery: The mixing ratio of mobile phase A and mobile phase B was varied as shown in Table 3 for linear concentration gradient control. The peak area value for the peptide in the chromatogram was calculated, and the remaining rate (remaining rate before correction for water) was calculated using formula (2). The remaining rate after correction for water was also calculated from the remaining rate before correction for water using formula (3), taking into account the moisture permeability of the vessel. Peptides 10 and 11 synthesized in Example 2 were weighed and dissolved in phosphate buffer (pH 7.0) to prepare 1.0 mM peptide solutions. Each solution was filtered with a Chromatdisk (product of Merck Millipore. Millex-GV, 0.22 μm). Each filtrate was diluted to 100 μM with phosphate buffer (pH 7.0) and dispensed into a tube (Protein LoBind Tube by Eppendorf Co.). The prepared peptide solutions were incubated for one month or 2 months in a 40° C. thermostatic bath to obtain stored samples. A simultaneously prepared sample among the peptide solutions that was not stored was used as a standard sample (initial sample). The standard sample and the stored samples were stored at -30° C. until sample analysis. The remaining rate after correction for water for each peptide among the stored samples was measured in the same manner as Example 4, and the results are shown in Table 8.

[2] = Peptide stability test, Tris buffer (pH 7.0), 60° C. storage, HPLC remaining rate; format: physicochemical; conditions: Table 7; 100 μM in Tris buffer pH 7.0
Method in brief: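 Peptides at 100 μM in Tris buffer (pH 7.0) stored 1 or 2 weeks at 60° C.; unstored sample kept at −30° C. as initial reference. Remaining peptide quantified by reversed-phase HPLC at 220 nm (formic acid/acetonitrile gradient, 40° C. column), as water-corrected remaining rate.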

PAC1R = target: T2, PAC1R (Homo sapiens, UniProt P41586); assay: cAMP assay in PAC1R high-expressing CHO-K1 cell line; format: cell-based; conditions: Table 12; cAMP inducing effect, CHO-K1 PAC1R high-expressing cells
T2 construct: host or cells: CHO-K1
T2 sequence (P41586 21-468): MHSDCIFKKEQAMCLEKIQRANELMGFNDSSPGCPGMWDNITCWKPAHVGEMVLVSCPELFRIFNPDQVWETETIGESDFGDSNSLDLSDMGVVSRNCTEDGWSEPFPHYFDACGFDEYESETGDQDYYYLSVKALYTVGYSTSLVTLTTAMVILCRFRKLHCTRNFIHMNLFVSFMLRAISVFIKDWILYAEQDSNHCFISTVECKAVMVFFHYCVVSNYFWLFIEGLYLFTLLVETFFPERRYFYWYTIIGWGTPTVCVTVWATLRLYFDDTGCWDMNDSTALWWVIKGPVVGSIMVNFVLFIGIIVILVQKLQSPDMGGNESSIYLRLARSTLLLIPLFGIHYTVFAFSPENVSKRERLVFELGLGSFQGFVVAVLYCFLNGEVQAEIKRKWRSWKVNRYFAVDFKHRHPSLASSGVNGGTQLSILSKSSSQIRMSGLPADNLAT
Procedure: as §1

[3] = Table 8, 100 μM in phosphate buffer pH 7.0, measured as in Example 4

For `CC[C@H](C)[C@H](NC(=O)CNC(=O)[C@H](Cc1nnn[nH]1)NC(=O)[C@H](CO)NC(=O)[C@H](Cc1c[nH]cn1)NC(C)=O)C(=O)N[C@@H](Cc1ccccc1)C(=O)N[C@H](C(=O)N[C@@H](Cc1nnn[nH]1)C(=O)N[C@@H](CO)C(=O)N[C@@H](Cc1ccc(O)cc1)C(=O)N[C@@H](CO)C(=O)N[C@@H](CCCNC(=N)N)C(=O)N[C@@H](Cc1ccc(O)cc1)C(=O)N[C@@H](CCCNC(=N)N)C(=O)N[C@@H](CCCCN)C(=O)N[C@@H](CCC(N)=O)C(=O)N[C@@H](CCSC)C(=O)N[C@@H](C)C(=O)N[C@H](C(=O)N[C@@H](CCCCN)C(=O)N[C@@H](CCCCN)C(=O)N[C@@H](Cc1ccc(O)cc1)C(=O)N[C@@H](CC(C)C)C(=O)N[C@@H](C)C(=O)N[C@@H](C)C(=O)N[C@H](C(=O)N[C@@H](CC(C)C)C(N)=O)C(C)C)C(C)C)[C@@H](C)O` [Peptide 10] (Ac-HS[Ala(1H-tetrazol-5-yl)]GIFT[Ala(1H-tetrazol-5-yl)]SYSRYRKQMAVKKYLAAVL-NH2), the EC50 (VPAC1R) was 0.101 nM, the “remaining rate after correction for water, 40° C., 1 month preservation” value [1, 3] was 94.0% and the “remaining rate after correction for water, 40° C., 2 months preservation” value [1, 3] was 86.8%. For the same molecule, the “stability in aqueous solution (in words), 40° C. storage” value ([1]; phosphate buffer pH 7.0, 1 or 2 months) was “stabilized to the same degree”.

For `CC[C@H](C)[C@H](NC(=O)CNC(=O)[C@H](Cc1nnn[nH]1)NC(=O)[C@H](CO)NC(=O)[C@H](Cc1c[nH]cn1)NC(C)=O)C(=O)N[C@@H](Cc1ccccc1)C(=O)N[C@H](C(=O)N[C@@H](Cc1nnn[nH]1)C(=O)N[C@@H](C)C(=O)N[C@@H](Cc1ccc(O)cc1)C(=O)N[C@@H](CO)C(=O)N[C@@H](CCCNC(=N)N)C(=O)N[C@@H](Cc1ccc(O)cc1)C(=O)N[C@@H](CCCNC(=N)N)C(=O)N[C@@H](CCCCN)C(=O)N[C@@H](CCC(N)=O)C(=O)N[C@@H](C)C(=O)N[C@@H](C)C(=O)N[C@H](C(=O)N[C@@H](CCCCN)C(=O)N[C@@H](CCCCN)C(=O)N[C@@H](Cc1ccc(O)cc1)C(=O)N[C@@H](CC(C)C)C(=O)N[C@@H](C)C(=O)N[C@@H](C)C(=O)N[C@H](C(=O)N[C@@H](CC(C)C)C(N)=O)C(C)C)C(C)C)[C@@H](C)O` [Peptide 27] (Ac-HS[Ala(1H-tetrazol-5-yl)]GIFT[Ala(1H-tetrazol-5-yl)]AYSRYRKQAAVKKYLAAVL-NH2), the EC50 (VPAC1R) was 0.044 nM, the “remaining rate after correction for water, 60° C., 1 week preservation” value [2] was 96.4% and the “remaining rate after correction for water, 60° C., 2 weeks preservation” value [2] was 93.5%. The EC50 (PAC1R) was 0.06 nM.

For `CC[C@H](C)[C@H](NC(=O)[C@H](C)NC(=O)[C@H](Cc1nnn[nH]1)NC(=O)[C@H](CO)NC(=O)[C@H](Cc1c[nH]cn1)NC(C)=O)C(=O)N[C@@H](Cc1ccccc1)C(=O)N[C@H](C(=O)N[C@@H](Cc1nnn[nH]1)C(=O)N[C@@H](CO)C(=O)N[C@@H](Cc1ccc(O)cc1)C(=O)N[C@@H](CO)C(=O)N[C@@H](CCCNC(=N)N)C(=O)N[C@@H](Cc1ccc(O)cc1)C(=O)N[C@@H](CCCNC(=N)N)C(=O)N[C@@H](CCCCN)C(=O)N[C@@H](CCC(N)=O)C(=O)N[C@@H](CC(C)C)C(=O)N[C@@H](C)C(=O)N[C@H](C(=O)N[C@@H](CCCCN)C(=O)N[C@@H](CCCCN)C(=O)N[C@@H](Cc1ccc(O)cc1)C(=O)N[C@@H](CC(C)C)C(=O)N[C@@H](C)C(=O)N[C@@H](C)C(=O)N[C@H](C(=O)N[C@@H](CC(C)C)C(N)=O)C(C)C)C(C)C)[C@@H](C)O` [Peptide 23] (Ac-HS[Ala(1H-tetrazol-5-yl)]AIFT[Ala(1H-tetrazol-5-yl)]SYSRYRKQLAVKKYLAAVL-NH2), the EC50 (VPAC1R) was 0.072 nM, the “remaining rate after correction for water, 60° C., 1 week preservation” value [2] was 96.5% and the “remaining rate after correction for water, 60° C., 2 weeks preservation” value [2] was 93.1%. It also gave an EC50 (PAC1R) of 0.079 nM.

In the case of `CC[C@H](C)[C@H](NC(=O)CNC(=O)[C@H](Cc1nnn[nH]1)NC(=O)[C@H](CO)NC(=O)[C@@H](N)Cc1c[nH]cn1)C(=O)N[C@@H](Cc1ccccc1)C(=O)N[C@H](C(=O)N[C@@H](CC(=O)O)C(=O)N[C@@H](CO)C(=O)N[C@@H](Cc1ccc(O)cc1)C(=O)N[C@@H](CO)C(=O)N[C@@H](CCCNC(=N)N)C(=O)N[C@@H](Cc1ccc(O)cc1)C(=O)N[C@@H](CCCNC(=N)N)C(=O)N[C@@H](CCCCN)C(=O)N[C@@H](CCC(N)=O)C(=O)N[C@@H](CCSC)C(=O)N[C@@H](C)C(=O)N[C@H](C(=O)N[C@@H](CCCCN)C(=O)N[C@@H](CCCCN)C(=O)N[C@@H](Cc1ccc(O)cc1)C(=O)N[C@@H](CC(C)C)C(=O)N[C@@H](C)C(=O)N[C@@H](C)C(=O)N[C@H](C(=O)N[C@@H](CC(C)C)C(N)=O)C(C)C)C(C)C)[C@@H](C)O` [Peptide 3], the EC50 (VPAC1R) is reported as 0.101 nM and the EC50 (PAC1R) is reported as 0.06 nM.
